From ChEMBL document CHEMBL5252624, “Antifungal evaluation of quinoline-chalcone derivatives combined with FLC against drug-resistant Candida albicans” (2023)
The source made the active and inactive calls. The rule behind the calls is not given here.

Columns and labels:
Candida albicans [1] = experiment: Antifungal activity against […] assessed as fractional inhibitory concentration index in presence of fluconazole by microdilution method; format: functional
Candida albicans [2] = experiment: Antifungal activity against Candida albicans ATCC SC5314 assessed as fractional inhibitory concentration index in presence of fluconazole by microdilution method; format: functional
Candida albicans [3] = experiment: Antifungal activity against […] assessed as fungal growth inhibition in presence of fluconazole by microdilution method; format: functional
Candida albicans [4] = experiment: Antifungal activity against Candida albicans ATCC SC5314 assessed as fungal growth inhibition in presence of fluconazole by microdilution method; format: functional
Candida albicans [5] = experiment: Antifungal activity against Candida albicans ATCC SC5314 assessed as fungal growth inhibition by microdilution method; format: functional
Candida albicans [6] = experiment: Downregulation of ATP level in Candida albicans; format: functional, organism-based
Candida albicans [7] = experiment: Downregulation of ATP level in Candida albicans in presence of fluconazole; format: functional, organism-based
Candida albicans [8] = experiment: Inhibition of mitochondrial membrane potential in Candida albicans; format: functional, organism-based
Candida albicans [9] = experiment: Induction of ROS accumulation in Candida albicans assessed as increase in intracellular ROS level in presence of fluconazole; format: functional, organism-based
Candida albicans [10] = experiment: Induction of ROS accumulation in Candida albicans assessed as increase in intracellular ROS level; format: functional, organism-based
Candida albicans [11] = experiment: Antifungal activity against […] assessed as fungal growth inhibition measured for 72 hrs by time kill assay; format: functional, organism-based
Candida albicans [12] = experiment: Antifungal activity against […] assessed as fungal growth inhibition in presence of fluconazole by time kill assay; format: functional, organism-based; conditions: time 72.0 hrs, TDE = time-dependent effect
Candida albicans [13] = experiment: Inhibition of biofilm formation in Candida albicans ATCC SC5314 at 32 microg/ml in presence fluconazole measured at 24 hrs; format: functional, organism-based; conditions: dose 32.0 µg/ml
Candida albicans [14] = experiment: Antifungal activity against […] assessed as fungal growth inhibition by microdilution method; format: functional
Candida albicans [15] = experiment: Inhibition of mitochondrial membrane potential in Candida albicans in presence of fluconazole; format: functional, organism-based
Candida albicans [16] = experiment: Antifungal activity against Candida albicans ATCC SC5314 assessed as reduction in hypha length at 32 microg/ml measured for 4 to 8 hrs in presence fluconazole of by inverted microscopic analysis; format: functional, organism-based; conditions: dose 32.0 µg/ml, time 4-8 hrs
Candida albicans [17] = experiment: Antifungal activity against Candida albicans ATCC SC5314 assessed as decrease in number of hypha at 32 microg/ml measured for 4 to 8 hrs in presence fluconazole of by inverted microscopic analysis; format: functional, organism-based; conditions: dose 32.0 µg/ml, time 4-8 hrs

Row | Compound | FICI80 (Candida albicans [1]) | FICI80 (Candida albicans [2]) | MIC80 (Candida albicans [3]) | MIC80 (Candida albicans [4]) | MIC80 (Candida albicans [5]) | other results
1 | CN1CCN(c2nc3ccccc3cc2/C=C/C(=O)c2ccc([N+](=O)[O-])cc2)CC1 | 0.17 | 1.25 | 6.9 µg/mL | 4.28 µg/mL | > 200 µg/mL | Activity (Candida albicans [6]): Active; Activity (Candida albicans [7]): Active; inhibition (Candida albicans [8]): inactive; Activity (Candida albicans [9]): Active; Activity (Candida albicans [10]): inactive; Activity (Candida albicans [11]): Active; Activity (Candida albicans [12]): Tde; inhibition (Candida albicans [13]): Active
2 | O=C(/C=C/c1cc2ccccc2nc1N1CCCCC1)c1ccc([N+](=O)[O-])cc1 | 2 | 2.79 | – | 5.64 µg/mL | > 200 µg/mL | –
3 | Cc1cccc(C)c1Oc1nc2ccccc2cc1/C=C/C(=O)c1ccc([N+](=O)[O-])cc1 | 0.23 | 1.52 | – | 3.07 µg/mL | > 200 µg/mL | –
4 | CN1CCN(c2nc3ccccc3cc2/C=C/C(=O)c2ccc(F)cc2)CC1 | 0.16 | 1.82 | 6.4 µg/mL | 3.61 µg/mL | 85.9 µg/mL | MIC80 (Candida albicans [14]): > 200 µg/mL; Activity (Candida albicans [6]): Active; Activity (Candida albicans [7]): Active; inhibition (Candida albicans [15]): Active; Activity (Candida albicans [9]): Active; Activity (Candida albicans [10]): Active; Activity (Candida albicans [11]): Active; Activity (Candida albicans [12]): Tde; Activity (Candida albicans [16]): Active; Activity (Candida albicans [17]): Active; inhibition (Candida albicans [13]): Active
5 | OC(Cn1cncn1)(Cn1cncn1)c1ccc(F)cc1F [FLUCONAZOLE] | – | – | – | – | 2.03 µg/mL | MIC80 (Candida albicans [14]): > 200 µg/mL
6 | CCOc1nc2ccccc2cc1/C=C/C(=O)c1ccc([N+](=O)[O-])cc1 | 2 | 2.46 | – | 4.96 µg/mL | > 200 µg/mL | –
7 | CCOc1nc2ccccc2cc1/C=C/C(=O)c1ccc(F)cc1 | 2 | 2.74 | – | 5.54 µg/mL | > 200 µg/mL | –
8 | O=C(/C=C/c1cc2ccccc2nc1N1CCCCC1)c1ccc(OC(F)(F)F)cc1 | 2 | 2.42 | – | 4.89 µg/mL | > 200 µg/mL | –
9 | CN1CCN(c2nc3ccccc3cc2/C=C/C(=O)c2ccc(OC(F)(F)F)cc2)CC1 | 0.23 | 2.35 | 6.14 µg/mL | 4.28 µg/mL | 17.6 µg/mL | MIC80 (Candida albicans [14]): 17.8 µg/mL
10 | Cc1cccc(C)c1Oc1nc2ccccc2cc1/C=C/C(=O)c1ccc(OC(F)(F)F)cc1 | 2 | 1.17 | – | 2.37 µg/mL | > 200 µg/mL | –
11 | CCOc1nc2ccccc2cc1/C=C/C(=O)c1ccc(OC(F)(F)F)cc1 | 0.08 | 16.04 | 16 µg/mL | 2.9 µg/mL | > 200 µg/mL | –
12 | Cc1cccc(C)c1Oc1nc2ccccc2cc1/C=C/C(=O)c1ccc(F)cc1 | 0.33 | 0.58 | 65.1 µg/mL | 1.17 µg/mL | > 200 µg/mL | –
13 | O=C(/C=C/c1cc2ccccc2nc1N1CCCCC1)c1ccc(F)cc1 | 2 | 0.48 | – | 0.96 µg/mL | > 200 µg/mL | –
14 | CCN(CC)c1nc2ccccc2cc1/C=C/C(=O)c1ccc(OC(F)(F)F)cc1 | 0.02 | 0.92 | 4.42 µg/mL | 1.85 µg/mL | > 200 µg/mL | –
15 | CCN(CC)c1nc2ccccc2cc1/C=C/C(=O)c1ccc(F)cc1 | 0.03 | 0.93 | 5.36 µg/mL | 1.87 µg/mL | > 200 µg/mL | –
16 | CCN(CC)c1nc2ccccc2cc1/C=C/C(=O)c1ccc([N+](=O)[O-])cc1 | 2 | 1.98 | – | 3.99 µg/mL | > 200 µg/mL | –
